Test results from patent publication US20040170705A1, “Compositions and methods for non-insulin glucose uptake” (priority 2001, published 2004).
Entries after “also recorded” stand apart in the source; their conditions may differ.

Legend:
[1] = tested on: skeletal muscle cells; conditions: cited from earlier work
[2] = tested on: L6 muscle cells; test: glucose uptake in L6 muscle cells (2-NBDG fluorescence); assay type: cell-based
Description: The permeate portion of GMM was tested for glucose uptake in L6 muscle cells. L6 cells were grown as monolayers in Dulbecco's modified Eagle's medium (DMEM) containing 1 mM glutamine, 1 mM pyruvate and 25 mM glucose. The medium was supplemented with 5% fetal calf serum (FCS). Experiments were undertaken in 48-well plates seeded from pre-confluent flasks with 50 000 cells per well. The cells were grown to confluence and the medium was changed to DMEM containing 0.5% FCS and 2.5 mM glucose (L6 Myo Medium) for at least 76 hrs to induce differentiation of L6 cells and formation of L6 myotubes. Myotubes were then incubated with test substances for 30 minutes—Protocol SMM, or in Dulbecco's PBS supplemented with 20 mM Hepes and 2 mM glucose without serum—Serum-free Medium (SFM) Protocol as described by Fryer et al. ((Activation of glucose transport by AMP-activated protein kinase via stimulation of Nitric oxide synthase, Diabetes, 49(12), 1978-85, 2000, Fryer LGD, et al).
Next, 30 uM of 2-NBDG was added for 2 minutes at 22C. Subsequently, cell culture medium was removed and cells were washed twice with cold DPBS. Then, cells were lysed in 0.5% SDS. Fluorescence was measured at 466/542 nm (excitation/emission) using 100 ul of cell lysate in 2 ml of water.
Cells were cultured, and treated in L6 Myo Medium (SSM)—SSM Protocol or in serum-free medium (SFM-DPBS containing 20 mM Hepes, 2 mM glucose)—SFM Protoci as described by Fryer et al. Glucose uptake was measured by adding 30 uM of 2-NBDG for 2′ at 22C. Experiments were performed in duplicates.
L-NMMA has been used in the experiment to verify whether GMM-induced glucose transport in L6 cells is or is not inhibited by NOS inhibitors, thus mimicking AICAR—induced mechanism of increased glucose transport. Fryer's experimental set up was adopted, consisting of pre-treatment of cells with inhibitor for 30 minutes in DPBS and after that with agonists like AICAR or in our case GMM for next 30 minutes at 37C before performing glucose uptake.

NC(=O)c1ncn([C@@H]2O[C@H](COP(=O)(O)O)[C@@H](O)[C@H]2O)c1N [AICAR, 5′-aminoimidazole 4-carboxamide 1-ribonucleotide]
effect on glucose uptake by pharmacological activation of AMPK ([1]; skeletal muscle): increase in glucose uptake

NC(=O)c1[nH]cnc1N [AICA]
effect on glucose uptake ([2]; L6 cells, 30 minutes treatment, uptake 2 minutes at 22C): stimulation

CC(=O)O.CNC(=N)NCCC[C@H](N)C(=O)O [L-NMMA, NG-methyl-L-arginine, acetate salt]
effect on permeate/GMM-induced glucose uptake ([2]; L-NMMA 300 uM pre-treatment 30 minutes in DPBS, acetate salt): inhibits; also recorded: blocks | effect on AICA-stimulated glucose uptake ([2]; pre-treatment with L-NMMA 30 minutes in DPBS, then AICA 30 minutes): inhibition | effect on the increase of glucose transport after activation of AMPK ([1]; NOS inhibitors, skeletal muscle cells): completely blocks

insulin: insulin used to treat L6 cells
glucose uptake increase ([2]; culture medium supplemented with 0.5% FCS (SSM), by average): 100-120% | glucose uptake increase ([2]; serum-free medium (DPBS)): 40-50%
